This passage reports Ki results from patent US9034866B2 (Genentech, Inc., priority 2012, dated 2015).

For the test, the target named is nuclear factor-kappa B (NF-kB)-inducing kinase (NIK) (Homo sapiens (Human), UniProt Q99558). In words: NIK Enzyme Inhibition Assay (Transcreener ADP fluorescence polarization). The note with it: read-out: NIK ADP-FP (Ki uM). Type of test: biochemical. As for the experimental part: NIK Enzyme Inhibition Assay: The ability of the nuclear factor-kappa B (NF-kB)-inducing kinase (NIK) to catalyze the hydrolysis of adenosine-5′-triphosphate (ATP) was monitored using the Transcreener ADP (adenosine-5′-diphosphate) assay (BellBrook Labs). Purified NIK (0.2-1 nM) derived from a baculovirus-infected insect cell expression system was incubated with test compounds for 1-3.5 hours in 50 mM 2-[4-(2-hydroxyethyl)piperazin-1-yl]ethanesulfonic acid buffer (pH 7.2) containing 10 mM MgCl2, 2 mM dithiothreitol, 10 uM ATP, 0.01% Triton X-100, 0.1% gamma-globulins from bovine blood, 1% dimethylsulfoxide (DMSO), 12 ug/mL ADP antibody and 4 nM ADP-AlexaFluor® 633 tracer. Reactions were quenched by the addition of 20 mM 2,2′,2″,2′″-(ethane-1,2-diyldinitrilo)tetraacetic acid and 0.01% Brij 35. The tracer bound to the antibody was displaced by the ADP generated during the NIK reaction, which causes a decrease in fluorescence polarization that was measured by laser excitation at 633 nm with a Fluorescence Correlation Spectroscopy Plus reader (Evotec AG).

[1] abbreviates: purified NIK 0.2-1 nM, 10 uM ATP, Morrison's quadratic equation.

“And” between values parts separate entries of the source, which are not always exact repeats. Equal values may be shown once. Read-outs that look alike come from different tables or passages of the source.

nuclear factor-kappa B (NF-kB)-inducing kinase (NIK), sequence (Q99558 whole entry): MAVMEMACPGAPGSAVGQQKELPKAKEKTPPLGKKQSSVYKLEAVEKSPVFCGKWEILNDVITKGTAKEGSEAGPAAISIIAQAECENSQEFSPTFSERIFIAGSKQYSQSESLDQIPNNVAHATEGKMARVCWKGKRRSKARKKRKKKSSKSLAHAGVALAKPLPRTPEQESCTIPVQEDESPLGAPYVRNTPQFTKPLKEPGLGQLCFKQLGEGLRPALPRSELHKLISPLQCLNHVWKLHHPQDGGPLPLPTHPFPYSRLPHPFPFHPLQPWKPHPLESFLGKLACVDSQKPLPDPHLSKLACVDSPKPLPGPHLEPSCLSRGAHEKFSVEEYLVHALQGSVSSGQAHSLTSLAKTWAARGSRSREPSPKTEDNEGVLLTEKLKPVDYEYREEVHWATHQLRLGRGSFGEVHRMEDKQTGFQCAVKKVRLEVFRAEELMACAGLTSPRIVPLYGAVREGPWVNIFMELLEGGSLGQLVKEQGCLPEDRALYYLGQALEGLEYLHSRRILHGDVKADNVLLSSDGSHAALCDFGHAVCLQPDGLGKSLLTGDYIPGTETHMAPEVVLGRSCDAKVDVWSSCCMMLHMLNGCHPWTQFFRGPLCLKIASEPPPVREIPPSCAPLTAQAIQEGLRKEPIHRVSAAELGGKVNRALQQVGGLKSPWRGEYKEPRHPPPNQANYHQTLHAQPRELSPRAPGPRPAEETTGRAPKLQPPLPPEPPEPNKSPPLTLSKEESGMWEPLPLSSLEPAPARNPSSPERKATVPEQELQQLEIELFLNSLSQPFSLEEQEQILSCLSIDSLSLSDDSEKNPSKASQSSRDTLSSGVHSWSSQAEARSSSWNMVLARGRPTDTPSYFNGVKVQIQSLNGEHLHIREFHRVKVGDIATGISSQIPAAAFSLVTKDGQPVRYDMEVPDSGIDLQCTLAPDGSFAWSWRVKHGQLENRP

The term Ki denotes the dissociation constant of the complex between target and ligand, obtained from inhibition or displacement. With `CC(C)(O)C#Cc1cc2c(cc1F)C1CC(C1)n1c-2nc(C(N)=O)c1-c1nc(-c2cccnc2)n[nH]1` (racemic) [Example 207], the inhibitory constant (Ki) under setting [1] was 0.00077 µM. The same measure, in the same setting: to `CN1CC[C@@](O)(C#Cc2ccc3c(c2)-n2nc(C(N)=O)cc2C2(CCC2)CO3)C1=O` [Example 717, (R)-9-((3-hydroxy-1-methyl-2-oxopyrro-lidin-3-yl)ethynyl)-5H-spiro[ben-zo[b]pyrazolo[1,5-d][1,4]oxazepine-4,1′-cyclobutane]-2-carboxamide] belongs 0.0005 µM; to `CC(C)(O)C#Cc1ccc2c(c1)-c1nc(C(N)=O)sc1CCO2` [Example 3, 9-(3-hydroxy-3-methyl-but-1-ynyl)-4,5-dihydro-6-oxa-3-thia-1-aza-benzo[e]azu-lene-2-carboxylic acid amide], 0.033 µM; to `Cc1cc([C@](C)(O)C#Cc2ccc3c(c2)-c2nc(C(N)=O)c(C(=O)N(C)C)n2C2CC3C2)no1` (racemic), 0.03 µM.

For `Cn1cnc(C(C)(O)C#Cc2cc3c(cc2F)OCCc2sc(C(N)=O)nc2-3)c1` (centres unmarked), the Ki under setting [1] is more than 5 µM. Same read-out and setting: to `Cc1nnc([C@](C)(O)C#Cc2ccc3c(c2)-n2nc(C(N)=O)cc2C(C)CO3)o1` (some centres unmarked) [Example 497] belongs 0.039 µM.

In the case of `COCCN(C)Cc1c(C(N)=O)nc2n1C1CC(C1)c1cc(F)c(C#CC(C)(C)O)cc1-2` (racemic) [Example 239], the inhibition constant Ki under setting [1] was found to be 0.23 µM. Still for that read-out and setting: with `CNC(=O)c1c(C(N)=O)nc2n1CCOc1ccc(C#C[C@](C)(O)c3ccccn3)cc1-2` the figure was more than 5 µM.

Take `Cc1nc(C(C)(O)C#Cc2cc3c(cc2Cl)OCCn2cc(C(N)=O)nc2-3)no1` (racemic) [Example 231]: the Ki under setting [1] is more than 5 µM. The same measure, in the same setting: with `CC(C)(O)C#Cc1ccc2c(c1)-c1nc(C(N)=O)sc1C(N1CCOCC1)CO2` (centres unmarked) [Example 11, 9-(3-hydroxy-3-methyl-but-1-ynyl)-4-morpholin-4-yl-4,5-dihydro-6-oxa-3-thia-1-aza-benzo[e]azulene-2-carboxylic acid amide] the figure was 0.416 µM; with `Cc1c(C(N)=O)nc2n1CCOc1cc(F)c(C#CC(C)(C)O)cc1-2` [Example 34, 8-fluoro-9-(3-hydroxy-3-methyl-but-1-ynyl)-3-methyl-4,5-dihydro-6-oxa-1,3a-diaza-benzo[e]azulene-2-carboxylic acid amide], 0.025 µM; with `CC(O)(C#Cc1cc2c(cc1F)OCCn1cc(C(N)=O)nc1-2)c1c[nH]cn1` (centres unmarked), 0.001 µM. For `NC(=O)c1cn2c(n1)-c1cc(C#CC3(O)CCCC3)ccc1OCC2` [Example 1, 9-(1-hydroxy-cyclopentylethynyl)-4,5-di-hydro-6-oxa-1,3a-diaza-benzo[e]azulene-2-carboxylic acid amide], under setting [1], the inhibition constant (Ki) was 0.052 µM. In the case of `CC(O)C(C)(O)C#Cc1cc2c(cc1F)OCCn1cc(C(N)=O)nc1-2` (centres unmarked) [Example 142], the Ki under setting [1] was found to be 0.142 µM. Same read-out and setting: to `CN1CCCC(O)(C#Cc2ccc3c(c2)-c2nc(C(N)=O)sc2CCO3)C1=O` (centres unmarked) belongs 0.0029 µM; to `CC(C)(O)C#Cc1ccc2c(c1)-c1nc(C(N)=O)c(CNC3COC3)n1CCO2`, 0.00054 µM. On to `CC(O)(C#Cc1cc2c(cc1F)OCCn1cc(C(N)=O)nc1-2)c1cncnc1` (centres unmarked) [Example 18, 8-fluoro-9-(3-hydroxy-3-pyrimidin-5-yl-but-1-ynyl)-4,5-dihydro-6-oxa-1,3a-diaza-benzo[e]azulene-2-carboxylic acid amide], for which the Ki is more than 5 µM. Turning to `CC(C)(O)C#Cc1ccc2c(c1)-c1nc(C(N)=O)c(CN3CC[C@@H](C#N)C3)n1CCO2`, the inhibitory constant (Ki) under setting [1] was 1.8 µM and 1.1 µM. Still for that read-out and setting: with `CC(C)(O)C#Cc1ccc2c(c1)-c1nc(C(N)=O)sc1C(O)CO2` (centres unmarked) [Example 12, 4-hydroxy-9-(3-hydroxy-3-methyl-but-1-ynyl)-4,5-dihydro-6-oxa-3-thia-1-aza-benzo[e]azulene-2-carboxylic acid amide] the figure was 0.093 µM; with `CC(C)(O)C#Cc1cc2c(cc1F)C1CC(C1)c1c-2nc(C(N)=O)n1Cc1ccccc1Cl`, 0.0036 µM; with `Cn1cncc1C(O)c1c(C(N)=O)nc2n1C1CC(C1)c1cc(F)c(C#CC(C)(C)O)cc1-2` (centres unmarked) [listing 1 of 2 here], 0.031 µM.

With `Cn1cncc1C(O)c1c(C(N)=O)nc2n1C1CC(C1)c1cc(F)c(C#CC(C)(C)O)cc1-2` (centres unmarked) [listing 2 of 2 here], the inhibitory constant (Ki) under setting [1] came to 0.011 µM. Still for that read-out and setting: with `Cc1nc([C@](C)(O)C#Cc2ccc3c(c2)-c2nc(C(N)=O)cn2C2CC3C2)no1` the figure was 0.003 µM; with `Cc1nn(C)cc1C(O)c1c(C(N)=O)nc2n1CCOc1cc(F)c(C#CC(C)(C)O)cc1-2` (centres unmarked) [Example 169], 0.023 µM; with `CC(C)(O)C#Cc1cc2c(cc1F)OCCn1c-2nc(C(N)=O)c1C(=O)NC1(C)COC1` [Example 60], 0.025 µM. Same read-out and setting: with `Cc1cc([C@](C)(O)C#Cc2ccc3c(c2)-c2nc(C(N)=O)cn2CC(CN2CCOCC2)O3)no1` (stereo partly drawn) [Example 597, 10-((R)-3-hydroxy-3-(5-methylisoxazol-3-yl)but-1-yn-1-yl)-6-(morpholinometh-yl)-5,6-dihydrobenzo[f]imidazo[1,2-d][1,4]oxazepine-2-carboxamide] the figure was 0.28 µM. Still for that read-out and setting: with `CC(O)(C#Cc1cc2c(cc1F)OCCn1cc(C(N)=O)nc1-2)c1ncc[nH]1` (racemic) the figure was 0.083 µM. Regarding `Cc1cc([C@](C)(O)C#Cc2ccc3c(c2)-c2nc(C(N)=O)c(C(=O)NCC4COC4)n2CCO3)no1` [Example 580, (R)-10-(3-hydroxy-3-(5-methylisoxazol-3-yl)but-1-yn-1-yl)-N3-(oxetan-3-ylmeth-yl)-5,6-dihydrobenzo[f]imidazo[1,2-d][1,4]oxazepine-2,3-dicarboxamide], the inhibition constant (Ki) under setting [1] stood at 0.0026 µM. On the same count and under the same terms, to `CN(C)C(=O)C(C)(O)C#Cc1cc2c(cc1F)OCCn1cc(C(N)=O)nc1-2` (racemic) [Example 51] belongs 0.721 µM; to `CC(O)(C#Cc1cc2c(cc1F)OCCn1cc(C(N)=O)nc1-2)c1ncccc1F` (centres unmarked) [Example 252], 0.025 µM. Same read-out and setting: to `Cc1nc([C@](C)(O)C#Cc2ccc3c(c2)-c2nc(C(N)=O)c(C(O)c4ccnn4C)n2C2CC3C2)no1` (some centres unmarked) belongs 0.0029 µM; to `COCC(C)(O)C#Cc1cc2c(cc1F)OCCn1c-2nc(C(N)=O)c1-c1nc(C2CC2)n[nH]1` (centres unmarked) [Example 213], 0.009 µM. Same read-out and setting: with `Cc1nnc(C(C)(C#Cc2ccc3c(c2)-c2nc(C(N)=O)cn2CCO3)CO)[nH]1` (centres unmarked) [Example 28, 9-[4-hydroxy-3-methyl-3-(5-methyl-4H-[1,24]triazol-3-yl)-but-1-ynyl]-4,5-di-hydro-6-oxa-1,3a-diaza-benzo[e]azulene-2-carboxylic acid amide] the figure was more than 5 µM; with `CC(C)(O)C#Cc1ccc2c(c1)-c1nc(C(N)=O)c(Cn3ncc4cccnc43)n1CCO2`, 0.2 µM.

For `CN1CC[C@@](O)(C#Cc2ccc3c(c2)-c2nc(C(N)=O)sc2C2CC3C2)C1=O` [Example 609, (R)-9-((3-hydroxy-1-methyl-2-oxopyrro-lidin-3-yl)ethynyl)-5,6-dihydro-4H-4,6-methanobenzo[6,7]cyclohepta[1,2-d]thiazole-2-carboxamide], the inhibitory constant (Ki) under setting [1] was 0.00094 µM. Same read-out and setting: with `CC(O)(C#Cc1cc2c(cc1F)OCCn1c-2nc(C(N)=O)c1C1CC1)c1ccccn1` (centres unmarked) the figure was 0.037 µM; with `CC(O)(C#Cc1cc2c(cc1F)OCCn1cc(C(N)=O)nc1-2)c1cc(CC#N)on1` (racemic), 0.003 µM. Same read-out and setting: to `CC(C)(O)C#Cc1cc2c(cc1F)OCCn1c-2nc(C(N)=O)c1C(=O)NCCN1CCCC1` (racemic) [Example 67] belongs 0.048 µM. On the same count and under the same terms, to `CC(C)(O)C#Cc1cc2c(cc1F)OCCn1c-2nc(C(N)=O)c1Cc1ccccc1F` [Example 25, 8-fluoro-3-(2-fluoro-benzyl)-9-(3-hydro-xy-3-methyl-but-1-ynyl)-4,5-dihydro-6-oxa-1,3a-diaza-benzol[e]azulene-2-car-boxylic acid amide] belongs 0.012 µM; to `CC(O)(C#Cc1cc2c(cc1F)OCCn1cc(C(N)=O)nc1-2)c1ccccn1` (racemic) [Example 54], 0.024 µM. As to `CC(O)(C#Cc1cc2c(cc1F)OCCn1cc(C(N)=O)nc1-2)c1nc(CC#N)cs1` (racemic) [Example 77], the inhibition constant Ki under setting [1] was 1.2 µM.

Turning to `CC(C)(O)C#Cc1ccc2c(c1)-c1nc(C(N)=O)c(Cn3ncc4ccccc43)n1CCO2`, the inhibition constant (Ki) under setting [1] is 0.14 µM. Still for that read-out and setting: to `CN1CC[C@@](O)(C#Cc2ccc3c(c2)-n2nc(C(N)=O)c(C(F)F)c2CCO3)C1=O` [Example 718, (R)-3-(difluoromethyl)-9-((3-hydroxy-1-methyl-2-oxopyrrolidin-3-yl)ethynyl)-4,5-dihydrobenzo[b]pyrazolo[1,5-d][1,4]oxazepine-2-carboxamide] belongs 0.0003 µM; to `Cn1nccc1Cc1c(C(N)=O)nc2n1C1CC(C1)c1cc(F)c(C#CC(C)(C)O)cc1-2`, 0.0024 µM. On the same count and under the same terms, to `CC(C)NCc1c(C(N)=O)nc2n1CCOc1ccc(C#CC(C)(C)O)cc1-2` belongs 0.0042 µM; to `CC(=O)NC1COc2ccc(C#CC(C)(C)O)cc2-c2nc(C(N)=O)sc21` (centres unmarked) [Example 26, 4-acetylamino-9-(3-hydroxy-3-methyl-but-1-ynyl)-4,5-dihydro-6-oxa-3-thia-1-aza-benzo[e]azulene-2-carboxylic acid amide], 0.21 µM. On the same count and under the same terms, with `Cc1ncccc1C(C)(O)C#Cc1cc2c(cc1F)OCCn1cc(C(N)=O)nc1-2` (centres unmarked) [Example 19, 8-fluoro-9-[3-hydroxy-3-(2-methyl-pyri-din-3-yl)-bul-1-ynyl]-4,5-dihydro-6-oxa-1,3a-diaza-benzo[e]azulene-2-carboxy-lic acid amide] the figure was more than 5 µM.
